Source: patent US20230000924A1, “COMPOSITIONS AND METHODS FOR GENERATION OF SINOATRIAL NODE-LIKE CELLS AND THEIR USE IN DRUG DISCOVERY” (Cornell University, priority 2019, published 2023)
Entries after “also recorded” stand apart in the source; their conditions may differ.

Legend:
[1] = tested on: hPSC-SAN cells differentiated from 48 distinct iPSC lines; assay: DOXO sensitivity of hPSC-SAN cells differentiated from 48 iPSC lines (cleaved caspase-3 / ISL1 staining); type: cell-based, human; conditions: 0.16 μM DOXO, 3 days
Experimental: FIG. 4. […] Data are mean±s.e.m. Data were normalized to non-DOXO treated cells.
To identify genetic variation that associates with the sensitivity of pacemaker cells to DOXO-induced toxicity, we performed an unbiased screen using a library of hPSC-SAN cells differentiated from 48 distinct iPSC lines. Cells differentiated for 35 days were treated with 0.16 μM DOXO for 3 days. Due to the lack of a robust antibody to SHOX2, an antibody recognizing ISL1 that is co-expressed with SHOX2:GFP (FIG. 2a), was used to identify hPSC-SAN cells that co-stain for cleaved caspase-3, as an assay for cytotoxicity. […] We identified 14 “high-sensitive” iPSC lines that generate hPSC-SAN cells displaying DOXO-induced apoptosis rates greater than 4-fold compared to DMSO-treated cells (FIG. 4b). To test if this platform can be applied toward in vitro pharmacogenomics, the iPSC clones were sequenced at several genomic regions harboring known SNPs associated with increased DOXO-mediated cardiotoxicity, including rs1056892, rs2229774 and rs885004 (in or near the genes CBR3, RARG and SLC28A3, respectively). 10 out of the 14 high-sensitive iPSC lines harbored one of these 3 SNPs (FIG. 4c). All 4 of the lines carrying the risk allele of rs1056892 generated hPSC-SAN cells with more than 4-fold increased toxicity. This is consistent with findings that CBR3 is expressed in heart tissue and functions for drug metabolism.

[2] = tested on: SHOX2:GFP+ hPSC-SAN cells; assay: DOXO toxicity, cleaved caspase3+ cells, in hPSC-SAN cells; type: cell-based, human; conditions: 0.16 μM DOXO, 3 days, day 35 pacemaker-like cells
Experimental: (§1) FIG. 4. Pharmacogenetics and drug discovery for doxorubicin-mediated acute cell toxicity using hPSC-SAN cells. a, Relative cell toxicity of hESC-SAN and hESC-V cells upon DOXO treatment based on immunostaining of antibody against cleaved-caspase3. The fold change was calculated by dividing the percentage of cleaved caspase-3^+ cells in GFP^+ or mCherry^+ cells in the DOXO-treated condition by the percentage of cleaved caspase-3^+ cells in GFP^+ or mCherry^+ cells in the DMSO-treated condition (n=10); b, Sensitivity of day 30 hiPSC-SAN cells derived from 48 hiPSC lines upon DOXO treatment. 48 hiPSC lines were differentiated toward SAN-like cells and split into two equal samples, which were treated with 0.16 μM doxorubicin or DMSO for 3 days. The fold change was calculated by dividing the percentage of cleaved caspase-3^+ cells in ISL1^+ cells in the DOXO-treated condition by the percentage of cleaved caspase-3^+ cells in ISL1^+ cells in the DMSO-treated condition. […] Data are mean±s.e.m. Data were normalized to non-DOXO treated cells.

A549 xenograft tumors = assay: A549 xenograft mouse model; type: in vivo; conditions: IP once a week for two weeks; for tumor burden / growth (tumor wt. and volume), single agent: 4 mg/kg
Experimental: FIG. 18. […] We tested the effects of Doxorubicin and Physcion using an A549 xenograft mouse model. Mice with A549 xenograft tumors were treated with vehicle, Doxorubicin, Physcion, or Doxorubicin plus Physcion. Doxorubicin and Physcion treatment was administered by IP injection once a week for two weeks, at a concentration of 4 mg/kg wt for both compounds.

[3] = tested on: SHOX2:GFP-; MHC6:mCherry+ cardiomyocytes; conditions: 0.16 μM DOXO, 3 days, day 35 cardiomyocytes
Experimental: as §1

murine SAN = assay: Ex vivo murine atrial explants (SAN cell death, contraction rhythmicity)
Experimental: FIG. 15. […] Quantification of contraction rhythmicity of explants was calculated by the COV as described above.
FIG. 16. […] Quantification of contraction rhythmicity of explants was calculated by the COV as described above.
Thus, we used an ex vivo model to document the direct effect of Doxorubicin and Physcion on the murine SAN. Whole, intact atrial explants were incubated with 1 μM doxorubicin or 1 uM doxorubicin+20 μM Physcion for 3 hrs.

HCN4+ SAN cells = conditions: mouse, in vivo
Experimental: FIG. 12. […] Immunofluorescence of intact atria isolated from Doxorubicin (two IP injections of 10 mg/kg at 3 day intervals) treated mice euthanized 9 days after initial treatment. Cell death (caspase 3, green) was analyzed in either myocardial (cTroponin, blue) or SAN tissue (HCN4, red).
FIG. 13. […] Contractions of intact atria isolated from vehicle (left panels) or Doxorubicin (right panels) treated mice (30 sec recordings;) x axis=[…]. […] Quantification of contraction rhythmicity of hearts was calculated by the coefficient of variance (COV)=std dev of peak to peak contraction time/average peak to peak contraction time.
C57BL/6 mice were treated with 20 mg/kg Doxorubicin by intraperitoneal injection.

[4] = cited from earlier work
[5] = tested on: hESC-derived ventricular myocytes (hESC-V); assay: Ca2+-flux assay (calcium imaging) in hESC-derived ventricular myocytes; type: cell-based, human; conditions: cardiomyocyte (hESC-V) cultures, 1 μM ivabradine, recordings after 5 min vs baseline
Experimental: (§2) FIG. 2. Functional characterization of hPSC-SAN cells. a, Immunofluorescent co-staining of GFP with pacemaker-associated transcription factors (ISL1, TBX5 and NKX2.5) and ion channels (HCN4, Cav3.1, Cav1.3 and Cx30.2) in cells differentiated to day 30 or day 60. Scale bar=200 μM. b, qRT-PCR analysis using samples from GFP^+ (G+) or mCherry^+ (Ch+) cells at day 25 or day 45. n=3 independent experiments. Fold-change was normalized to undifferentiated hESC. c, Schematic for co-culture of hESC-derived ANs expressing eYFP-channelrhodopsin-2 with either hPSC-SAN or hESC-V; d, Immunofluorescence (left) and electron microscopy images (right) of hESC-AN and hPSC-SAN after 12 weeks of co-culture. Scale bar: 100 μM and 1 μM, respectively; e, Basal release of catecholamine was analyzed using an ELISA kit for AN alone, AN+hES-SAN and AN+hES-V conditions after 8 weeks of co-culture. n=3 independent experiments. f, Representative image of averaged action potentials recorded from an individual hPSC-SAN (left) and distribution (right) of dV/dtmax, APD30 and APD90 recorded used day 30 cells; g, Quantitative analysis of day 30 hPSC-SAN function in response to 1 μM ivabradine. Fold change in calcium transient amplitude (deltaF/F0) of hPSC-SAN or hESC-V cells before and after treatment with ivabradine (n=22 for hESC-SAN and =17 for hESC-V). *p<0.05 **p<0.01. t-test. Data are mean±s.e.m. […]

hESC-SAN cells = assay: Ca2+-flux assay (calcium imaging) in hESC-SAN cells; type: cell-based, human; conditions: 1 μM ivabradine, recordings after 5 min vs baseline
Experimental: as §2

hPSC-SAN cells = assay: Chemical screen and validation for rescue of DOXO toxicity in hPSC-SAN cells; type: cell-based, human
Experimental: The fold change was calculated by dividing the percentage of cleaved caspase-3^+ cells in GFP^+ or mCherry^+ cells in the DOXO-treated condition by the percentage of cleaved caspase-3^+ cells in GFP^+ or mCherry^+ cells in the DMSO-treated condition (n=10); b, Sensitivity of day 30 hiPSC-SAN cells derived from 48 hiPSC lines upon DOXO treatment. […] The fold change was calculated by dividing the percentage of cleaved caspase-3^+ cells in ISL1^+ cells in the DOXO-treated condition by the percentage of cleaved caspase-3^+ cells in ISL1^+ cells in the DMSO-treated condition. […] Data were normalized to non-DOXO treated cells (n=4). h, Quantification of cell toxicity on hPSC-SAN cells derived from sensitive iPSC lines after co-treatment with DOXO and either 10 μM physcion (n=3) or DMSO (n=4). *p<0.05 **p<0.01. t-test. Data are mean±s.e.m. Data were normalized to non-DOXO treated cells.
Day 35 cells were treated for 3 days with DOXO and small molecules.
1472 compounds were tested consisting of FDA-approved drugs and natural products. Hit targets were selected based on a reduced percent ratio of GFP^+ cleaved caspase-3^+/GFP^+ cells (FIG. 11a). The compounds that decreased the cell death rate by more than two-fold of the standard deviation below the average of DMSO-treated samples were selected as primary hits. […]

[6] = tested on: A549 human epithelial lung cancer cells; assay: Chemotherapeutic effect on A549 cells in culture; type: cell-based; conditions: 72 hrs
Experimental: FIG. 17. […] We tested the effects of Physcion and Physcion+Doxorubicin on A549 human epithelial lung cancer cells grown in culture. 5×10^4 cells were treated with varying doses of Doxorubicin and Physcion for 72 hrs.

SHOX2:GFP+ cells = assay: Epigenetic library screen for SHOX2:GFP+ cells; type: cell-based, human; conditions: condition 8, compound added at day 7, after 14 days of differentiation
Description: To quantify and purify SAN-like cells using this directed differentiation protocol, a dual knock-in SHOX2:GFP; MYH6:mCherry reporter line was created using CRISPR/Cas-based gene-targeting techniques (FIG. 6b). Immunofluorescence and FACS analyses confirmed the success of the protocol for generating putative hPSC-SAN cells, as condition 8 maximizes generation of SHOX2:GFP^+ cells (FIG. 1c, d). The sorted GFP^+ cells were enriched approximately 4000-fold for SHOX2 transcript levels compared to GFP^− cells (FIG. 1e), and most of the GFP^+ cells co-express ISL1 and HCN4, proteins closely associated with the development and function of SAN cells (FIG. 6b). To further enhance production of GFP^+ cells, we considered that SAN development may also be controlled epigenetically and performed an unbiased screen using a library of known epigenetic modulatory compounds. Cells were differentiated using condition 8 with compounds added at day 7 (FIG. 1f and FIG. 6c).
Pacemaker and cardiomyocyte induction. Differentiation was initiated 72 hours after plating when the culture was approximately 80% confluent. Step 1: Cells were differentiated with 1.5 μM CHIR99021 (CHIR, Stem-RD, Ch), 20 ng/mL BMP4 (B) and 20 ng/mL Activin A (AA) in RPMI (Cellgro) supplemented with B27 minus insulin, 2 mM GlutaMAX, 1× NEAA and 1× Pen/Strep for 3 days (RB27-INS). […]

[7] = 1 uM doxorubicin+20 μM Physcion, 3 hrs

Compound: COc1cccc2c1C(=O)c1c(O)c3c(c(O)c1C2=O)C[C@@](O)(C(=O)CO)C[C@@H]3O[C@H]1C[C@H](N)[C@H](O)[C@H](C)O1 [Doxorubicin]
- DOXO-induced apoptosis rate compared to DMSO-treated cells ([1]; 14 high-sensitive iPSC lines): greater than 4 fold
- increased toxicity ([1]; all 4 lines carrying the risk allele of rs1056892): greater than 4 fold
- percentage of cleaved caspase3+ ISL1 cells following DOXO ([1]; hPSC-SAN cells from all 48 iPSC lines): at least some increase
- cytotoxicity (percentage of cleaved caspase3+ cells) [2]: significant cytotoxicity
- tumor burden / growth (tumor wt. and volume), single agent (A549 xenograft tumors): reduction in tumor wt. and volume
- cell death (percentage of cleaved caspase3+ cells) [3]: no significant increase in cell death
- SAN cell death in atrial explants (murine SAN; 1 μM doxorubicin, 3 hrs): localized SAN cell death
- contractility of atrial explants (murine SAN; 1 μM doxorubicin, 3 hrs): irregular contractility
- contraction rhythmicity of explants (COV) (murine SAN; 1.5 μM Doxorubicin): irregular contractions marked by significantly higher variance in the time between contractions
- variance in the time between contractions (coefficient of variance, COV) (HCN4+ SAN cells): significantly higher variance in the time between contractions
- sub-clinical systolic dysfunction ([4]; of treated patients): ~40%
- DOXO-induced cardiomyopathy ([4]; treated patients): 10-20%

Compound: COc1cc2c(cc1OC)CC(=O)N(CCCN(C)C[C@H]1Cc3cc(OC)c(OC)cc31)CC2 [ivabradine, Ivabradine]
- contractions and calcium activity [5]: no significant difference
- contractions and calcium activity (hESC-SAN cells): significant reduction

Compound: COc1cc(O)c2c(c1)C(=O)c1cc(C)cc(O)c1C2=O [Physcion, physcion]
- tumor burden / growth (tumor wt. and volume), single agent (A549 xenograft tumors): did not affect tumor growth
- effect on chemotherapeutic effects of Doxorubicin in vivo (A549 xenograft tumors; Physcion plus Doxorubicin, 4 mg/kg each): did not block; also recorded: did not inhibit the chemotherapeutic effects of Doxorubicin
- effective dose to rescue DOXO-induced cell toxicity (hPSC-SAN cells; hPSC-SAN cells, 0.16 μM DOXO, 3 days): 10 to 20 µM
- toxicity levels in hPSC-SAN cells from sensitive iPSC lines (hPSC-SAN cells; three most sensitive iPSC lines, DOXO with 10 μM Physcion vs without): significant decrease in toxicity levels
- chemotherapeutic effects of Physcion alone [6]: does not exhibit chemotherapeutic effects
- effect on chemotoxic effects of Doxorubicin ([6]; Physcion as high as 50 μM, varying doses of Doxorubicin): did not block; also recorded: did not inhibit
- doxorubicin-induced SAN cell death of explants (murine SAN; [7]): blocks
- doxorubicin-induced arrhythmic contractility of explants (murine SAN; [7]): blocks
- contraction rhythmicity of explants (COV) (murine SAN; 1.5 μM Doxorubicin+20 μM Physcion): regained rhythmic contractions with minimal variance in periods between contractions

Compound: Nc1cc(F)ccc1NC(=O)c1ccc(CNC(=O)/C=C/c2cccnc2)cc1 [chidamide]
- percentage of GFP+ cells (SHOX2:GFP+ cells): ~50%
